Columns and labels:
[1] = Pharmacokinetic study of PGI alone and after repeated GAO in rats; format: in vivo, rat; settings: for clearance / AUC(0-inf) / AUC(0-t) / half-life: male, SD, rat, plasma, iv, 9 mg/kg, n = 8; for clearance: CL
Method: A total of 100 μl of rat plasma sample and 10 μl of polydatin solution (IS) were mixed with 400 μl of ice acetonitrile; the mixture was vortexed for 3 min and centrifuged at 13,200 × g under 4℃ for 20 min. The supernatant was transferred to another centrifuge tube and dry with nitrogen, re-dissolved with 100 μl of 80% methanol-H2O (v/v). The mixture was vortexed for 3 min and centrifuged at 13,200 × g under 4℃ for 20 min. For further LC-MS analysis, 3 μl of the supernatant was injected.
An ultrahigh-performance liquid chromatography-mass spectrometer (Waters, United States) was used for separation and detection. A Waters ACQUITY UPLC HSS T3 column (2.1 × 100 mm, 1.8 μm) was employed at 35℃ with a flow rate of 0.3 ml min^−1. The mobile phase consisted of acetonitrile (A) and water containing 0.1% FA (B). The following linear gradient was used: 0–4 min: 25–95% A; 4–4.5 min: 95–25% A; and 4.5–6 min: 25% A.
MRM was performed using QQQ-MS model Xevo TQ-S (Waters, United States). ESI was set as follows: capillary voltage, 3.0 kV; desolvation temperature, 450℃; and desolvation gas flow, 900 L/h (N2, purity 99.9%). The MRM transitions (precursor → product) of PG and polydatin (IS) were m/z 405.16 → m/z 243.18 and m/z 389.16 → m/z 227.20, respectively. The cone voltage of PG and polydatin were 80 and 84 V, respectively. The collision energy of PG and polydatin was 30 and 20 V, respectively.
Sixteen SD male rats (200 ± 20 g) were purchased from Beijing Vital River Laboratory Animal Technology Co., Ltd. (license number: SCXK (Beijing) 2016-0006). All rats were reared adaptively in a suitable environment for 1 week with freely available food and water. The temperature was maintained at 22℃, and the light was maintained for 12 h in a day.
The rats were randomly divided into two groups, viz., the control group (n = 8) and the combined group (n = 8). For the control group, 9 mg kg^−1 of PGI was injected into the tail vein of rats, whereas the same dosage of PGI was injected after 14 days of repeated GAO ingestion (51 mg kg^−1) for the combined group. The dosage administered to rats is in accordance with clinical dosage. After administration, blood samples were obtained from each rat at 0.03, 0.08, 0.16, 0.33, 0.5, 0.75, 1, 2, 3, 4, and 6 h. The blood sample was centrifuged at 6,600 × g under 4℃ for 10 min, and the supernatant was stored at −80℃ for further analysis.
Pharmacokinetic parameters were calculated under a noncompartmental model using Drug and Statistics 1.0 (DAS 1.0) software.

UGT1A1 = assay: Metabolism of PG based on UGTs, rat liver microsomes with inhibitor pazopanib; format: in vitro ADME; settings: PG 10 μmol L−1, pazopanib 50 μmol L−1, p > 0.05
Method: (§1) The incubation mixtures consisted of 1 mg mL^−1 of rat liver microsomes, 1 mmol L^−1 of UDPGA and 10 μmol L^−1 of PG, tris-HCl (pH = 7.4) and inhibitor (pazopanib (50 μmol L^−1)), niflumic acid (10 μmol L^−1), and fluconazole (50 μmol L^−1). The incubation system was the same as that in “2.4.1.,” whereas polydatin (20 μg mL^−1) was selected as the IS. Detection and analysis conditions based on UPLC-QQQ-MS were the same as those in “2.4.2.” The MRM transitions, cone voltage, and collision voltage of the target compounds and IS are shown in Supplementary Table S1.

[2] = Stability of PG in rat blank plasma (method validation); format: in vitro ADME; parameters: unit not given here; settings: n = 6
Method: UPLC-MS/MS method validation was performed according to the FDA bioanalytical method validation guidance. The method was validated in terms of linearity, accuracy, precision, extraction recovery, matrix effect, and stability.
The result of specificity is shown in Supplementary Figure S12. The RTs of PG and polydatin were 1.47 and 1.70 min, respectively. Their chromatographic peaks were in good shape, and there was no interference from other endogenous substances. The regression equation of PG was y = 0.584781x − 0.47063, and the r ^2 and range of the linear were 0.9929 and 0.001–40 μg mL^−1, respectively. LLOQ was 0.5 ng mL^−1. The RSD of the intraday and interday precision was less than 15%, and the accuracy was between 80% and 120% (Supplementary Table S11). […] The stability of PG was less than 12.83% (Supplementary Table S13 ). It was shown that the established method complies with the relevant regulations of pharmacokinetics.

UGT2B7 = assay: Metabolism of PG based on UGTs, rat liver microsomes with inhibitor fluconazole; format: in vitro ADME; settings: PG 10 μmol L−1, fluconazole 50 μmol L−1, p > 0.05
Method: as §1

[3] = after 14 days repeated GAO, p < 0.05
[4] = Combined group: PGI 9 mg kg−1 tail vein after 14 days of repeated GAO 51 mg kg−1, rats
[5] = Control group: PGI 9 mg kg−1 tail vein, rats

OC[C@H]1O[C@@H](Oc2cc(/C=C/c3cc(O)cc(O)c3)ccc2O)[C@H](O)[C@@H](O)[C@@H]1O [PG, Piceatannol-3′-O-β-D-glucopyranoside]
change of AUC 0-t of PG, combined group vs control [1, 3]: significantly increased
change of AUC 0-∞ of PG, combined group vs control [1, 3]: significantly increased
change of T1/2 of PG, combined group vs control [1, 3]: prolonged
change of clearance of PG, combined group vs control [1, 3]: significantly decreased
clearance [1, 4]: 30.4 mL/min/kg
clearance [1, 5]: 46.2 mL/min/kg
AUC(0-inf) [1, 4]: 5010 ± 686 ng·h/mL
AUC(0-t) [1, 4]: 4900 ± 606 ng·h/mL
half-life [1, 4]: 1.74 ± 0.802 h
AUC(0-inf) [1, 5]: 3320 ± 525 ng·h/mL
AUC(0-t) [1, 5]: 3310 ± 517 ng·h/mL
half-life [1, 5]: 1.01 ± 0.409 h
contribution of UGT1A1 to metabolism of PG (UGT1A1): contributed little or no participation
Stability, Measured con. ([2]; 4h, Con. 0.005 μg/mL): 111.33
Stability, Measured con. ([2]; 4h, Con. 5 μg/mL): 117.12
Stability, Measured con. ([2]; 4h, Con. 30 μg/mL): 98.21
Stability, Measured con. ([2]; 24h, Con. 0.005 μg/mL): 116.33
Stability, Measured con. ([2]; 24h, Con. 5 μg/mL): 115.03
Stability, Measured con. ([2]; 24h, Con. 30 μg/mL): 98.37
Stability, Measured con. ([2]; 15 days, Con. 0.005 μg/mL): 92.00
Stability, Measured con. ([2]; 15 days, Con. 5 μg/mL): 100.78
Stability, Measured con. ([2]; 15 days, Con. 30 μg/mL): 96.48
Stability, Measured con. ([2]; Freeze-thaws stability (3 times), Con. 0.005 μg/mL): 107.66
Stability, Measured con. ([2]; Freeze-thaws stability (3 times), Con. 5 μg/mL): 104.58
Stability, Measured con. ([2]; Freeze-thaws stability (3 times), Con. 30 μg/mL): 105.11
contribution of UGT2B7 to metabolism of PG (UGT2B7): contributed little or no participation

Source: publication PMC9344054, “Studies on Chemical Characterization of Ginkgo Amillaria Oral Solution and Its Drug–Drug Interaction With Piceatannol 3′-O-β-D-Glucopyranoside for Injection” (Frontiers in Pharmacology, 2022)
